Assay results taken from ChEMBL document CHEMBL1157539, “Thousands of chemical starting points for antimalarial lead identification” (Nature, 2010).

System: Plasmodium falciparum
Assay: GSK_TCMDC: Inhibition of Plasmodium falciparum 3D7 in whole erythrocytes, using parasite LDH activity as an index of growth.
Assay type: functional, organism-based
Settings: Plasmodium falciparum, 3D7

Compound	XC50 [nM]
CCCCCCn1c(Sc2ccc(C#N)c([N+](=O)[O-])c2)nnc1-c1ccc(N(C)C)cc1	1070
Cc1cc(NCCC(=O)NCCc2ccccc2)nc(NCCc2ccc(F)cc2)n1	1080
COc1ccc2nccc([C@@H](O)CN3CCC(NCc4ccc5nsnc5c4)CC3)c2c1	958
NC[C@H](CC1CCCCC1)NC(=O)c1ccc(-c2ccnc3[nH]ccc23)s1	950
COc1ccc(-c2nc(NC(=O)CSc3ccccc3)sc2C)cc1	764
CC(C)c1nc2c(N)nc(N)nc2nc1N	1310
CC(=O)Nc1ccc(CN2CCC(NC(=O)c3ccc(-c4cccc(OC(C)C)c4)s3)CC2)cc1	1460
CC(C)CCN1CCC(Oc2ccc(NC(=O)c3cccs3)cc2Cl)C1 (stereo not drawn)	1100
O=S(=O)(/C=C/c1ccccc1)N(Cc1ccc(-c2ccc(CNCCc3ccccc3)cc2)cc1)CC1CCCCN1 (stereo not drawn)	794
COc1cc(NC(=O)c2sc(-c3ccc(Cl)cc3)cc2NC(=O)CN2CCCC2)ccc1OCCN1CCCC1	927
COc1c(CCNCCCCNCCc2cc(Cl)c3ccccc3c2OC)cc(Cl)c2ccccc12	168
CCOC(=O)c1ccc(OCCOc2ccccc2)cc1	367
Cc1ccc(NC(=O)Nc2ccc(Cl)cc2)cc1-c1cccc(C(=O)Nc2ccc(F)cc2)c1	735
COc1cc(NC2=C(c3ccccc3)C(=O)c3ccccc32)ccn1	359
CCCCCCCSc1ccc(CC(C)NCC(O)c2cccc(Cl)c2)cc1 (stereo not drawn)	178
COc1ccc(CCN(C)CCCOc2ccc(NC(=O)c3cccc4c(=O)c5ccccc5[nH]c34)cc2)cc1OC	912
CS(=O)(=O)c1ccc(CNCc2cccc(-c3cccc(-c4nc5cc(C(F)(F)F)ccc5[nH]4)c3)c2)cc1	182
Cc1ccc(/C=C2/SC(=Nc3ccccc3)NC2=O)c(C)c1	557
COc1ccc(CNCc2cccc(-c3csc(-c4nc5ccccc5[nH]4)c3)c2)cc1	645
COC(=O)C(NC(=O)c1ccc(-c2ccc(-c3nc4ccccc4[nH]3)s2)cc1)c1ccc(O)cc1 (stereo not drawn)	738
COc1ccc2nc(C)cc(Nc3ccc(Oc4ccc(Cl)c5ccccc45)c(Cl)c3)c2c1	730
N#Cc1ccc(CNCCCCCCCNCc2ccc(-c3ccccc3)cc2)cc1	970
CCN(CC)CCNc1ccnc2[nH]c3ccc(C)cc3c12	669
N#CCCN1CCN(Cc2cccc(-c3ccc(-c4nc5ccccc5[nH]4)s3)c2)CC1	759
COc1ccc(C(C(=O)NC2CCN(C[C@H](O)c3ccnc4ccc(OC)cc34)CC2)N2CCN(c3ccc(F)cc3)CC2)cc1 (stereo partly drawn)	214

Compound	XC50 [nM]
CN(C)CCC1CCCc2ccc(NC(=O)Nc3ccc(-c4ccncc4)c4ccccc34)cc21 (stereo not drawn)	1070
Cc1ccc(C(=O)Nc2ccc(F)c(F)c2F)cc1S(=O)(=O)N1CCCCC1	763
COc1ccc(NC(=O)c2cc(NC(=O)C3(N)CC3)c(=O)n(Cc3ccc(C(N)=O)cc3)c2)cc1	792
O=C(Nc1ccc(SC(F)(F)F)cc1)Nc1ccc(Cl)c(Cl)c1	909
COc1cc(-c2[nH]c(-c3ccc(OCCN(C)C)cc3)cc2-c2ccncc2)ccc1Cl	1790
CCCc1cc(NC2CCN(C)CC2)nc(Nc2ccc(C)cc2)n1	898
O=C(c1cccc(-c2noc(C(F)(F)F)n2)c1)N1CCN(c2ccncc2)CC1	233
O=[N+]([O-])c1ccc(Oc2c(Cl)cc(S(=O)(=O)N3CCC(CN4CCC(c5c[nH]c6ccccc56)CC4)CC3)cc2Cl)c(Cl)c1	998
CC(=O)N1CCN(c2ccc(NC(=O)c3oc(-c4ccccc4)nc3C(F)(F)F)cn2)CC1	840
O=C(Nc1ccc(-c2cccc(-c3nc4ccccc4[nH]3)c2)cc1)NC1CC1c1ccccc1 (stereo not drawn)	630
O=S(=O)(c1ccc(NC(S)=NN=Cc2ccccn2)cc1)N1CCCCC1	720
C=CCOc1ccc2ccccc2c1CNCCCCCCNCc1c(OCC=C)ccc2ccccc12	859
CC(C)C(C(=O)Nc1ccc2c(c1)OCO2)c1ccc(Cl)cc1 (stereo not drawn)	717
CCNc1cc(C(=O)N[C@@H](Cc2ccccc2)[C@H](O)CNCCc2cccc3ccccc23)cc(N2CCCC2=O)c1	982
CCCC1N=C(N)N=C(N)N1c1ccc(C)c(C)c1 (stereo not drawn)	73.6
COc1ccc(-c2nc3cccnc3n2CC(=O)Nc2cc(Cl)c(Cl)cc2Cl)c(OC)c1	722
Cc1cnc(C(=O)Nc2cccc(-c3ccc(-c4nc5cc(F)ccc5[nH]4)cc3)c2)cn1	637
CC(C)CCNCC(O)Cn1c2ccc(Cl)cc2c2cc(Cl)ccc21 (stereo not drawn)	447
O=C(/C=C/c1ccc(Cl)c(Cl)c1)N1CCC(C(O)CN2CCC(c3c[nH]c4ccccc34)CC2)CC1 (stereo not drawn)	859
O=C(/C=C/c1ccc(Cl)c(Cl)c1)NCCCCCN1CCCC(CNS(=O)(=O)c2cccc(C(F)(F)F)c2)C1 (stereo not drawn)	950
COc1ccccc1CCCON1C(=N)N=C(N)NC1(C)C	3.2
C=CCn1c(Sc2ccc(C#N)c([N+](=O)[O-])c2)nnc1-c1ccc(Cl)cc1	667
COc1ccccc1C1CCN(C2CCC(NC(=O)/C=C/c3ccc(C(F)(F)F)cc3)CC2)CC1 (stereo not drawn)	1160
O=c1cc(NCCCNCc2cccc(Oc3ccccc3)c2)[nH]c2ccccc12	946
Nc1ncnc2occ(-c3ccc(NC(=O)Nc4cc(C(F)(F)F)ccc4F)cc3)c12 [GW770249A]	1720

Compound	XC50 [nM]
CCOC(=O)c1ccc(OCCCCCCOc2ccc(Br)cc2)cc1	777
O=C(/C=C/c1ccc(Cl)c(Cl)c1)NCCCCCN1CCC(NC(=O)NC2CCCCCC2)CC1	464
CCCCCCn1c(Sc2ccc(C#N)c([N+](=O)[O-])c2)nnc1-c1ccc(Cl)cc1	832
CCCC(C)Nc1nc(C)cc(N[C@@H](CC(C)C)C(=O)Nc2ccc(OC)cc2)n1 (stereo partly drawn)	866
Cc1ccc2c(=NN=Cc3cccc(Cl)c3)cc(C)[nH]c2c1	949
CCCCCCCN1CC[C@@H](CCC(O)c2ccnc3ccc(OC)cc23)[C@@H](CC)C1 (stereo partly drawn)	754
OCCN1CCN(Cc2ccc(-c3ccc(-c4nc5ccccc5[nH]4)cc3)cc2)CC1	616
O=C(C=Cc1ccc(Cl)c(Cl)c1)NCCCCCN1CCC(CCNC(=O)/C=C/c2ccccc2)CC1	783
CC(C)Nc1nc(NCCc2c[nH]cn2)nc(NCc2cccc3ccccc23)n1	1010
CN1CCN(C(C(=O)NCc2cc(Cl)cc(Cl)c2)c2ccccc2-c2ccsc2)CC1 (stereo not drawn)	936
O=c1cc(NCCCNCc2scc(I)c2I)[nH]c2ccccc12	586
O=C(Nc1ccc(F)c(Cl)c1)c1cc([N+](=O)[O-])cc2cn[nH]c12	315
Cc1cccc2nc(-c3cccc(-c4ccc(NC(=O)Cc5ccccn5)cc4)c3)[nH]c12	793
O=C(Nc1cccc(C(F)(F)F)c1)c1ccc(S(=O)(=O)NCC2CCN(CC3CCCCC3)CC2)cc1	320
CCN(CC)Cc1cc(Nc2ccnc3cc(Cl)ccc23)ccc1O	160
COc1ccc2sc(CNCCCNc3cc(=O)c4ccccc4[nH]3)c(Cl)c2c1	1070
CS(=O)(=O)Nc1ccc(-c2cnc3[nH]cc(-c4ccc(C(=O)O)cc4)c3c2)cc1	800
CCOc1cc(CC)ccc1C1CCN(CCN2CCC(NC(=O)c3ccc(-c4ccc(C#N)cc4)cc3)CC2)CC1	610
O=C(Nc1ccc(C(=O)N(Cc2ccc3c(c2)OCO3)C2CCCC2)cc1)c1cccs1	650
Cc1[nH]c2ccc(C#N)cc2c(=O)c1Br	640
Fc1cc(Cl)ccc1Nc1ccnc2cc(-c3ccc(CN4CCCCC4)o3)ccc12	337
Cn1cnc(CCNC(=O)c2ccc(-c3ccc(-c4nc5cc(F)ccc5[nH]4)cc3)cc2)c1	866
Cc1cccc2nc(-c3ccc(-c4cccc(CN5CCN(CC6CCCN(C)C6)CC5)c4)s3)[nH]c12 (stereo not drawn)	121
Cc1ccc(-n2c(=O)c3c(n4c(SC(C)C)nnc24)-c2ccccc2CC32CCCCC2)cc1	946
O=C(Nc1ccc2oc(-c3ccc(Cl)cc3Cl)nc2c1)c1ccc([N+](=O)[O-])o1	1100

Compound	XC50 [nM]
COc1cccc(CN2CCC(C(=O)Nc3ccc(-c4nc5ccccc5[nH]4)cc3)CC2)c1	627
CCCCOC(=O)C1=C(C)NC2=C(C(=O)CC(c3ccc(OC)c(OC)c3)C2)C1c1ccc(O)cc1 (stereo not drawn)	834
CCOC(C(=O)OCCN(C(C)C)C(C)C)(c1ccccc1)c1ccccc1	874
COc1ccc(CNCc2cccc(-c3ccc(-c4nc5ccccc5[nH]4)s3)c2)cc1	816
CCCCc1ccc(C(=O)Nc2ccc3nc(N4CCN(C)CC4)cc(C)c3c2)cc1	1100
O=C(NCc1ccccn1)C(c1cc2ccccc2o1)N1CCN(C(c2ccccc2)c2ccccc2)CC1 (stereo not drawn)	856
Cn1nc(-c2ccc(NC(=O)Nc3cc(C(F)(F)F)ccc3F)c(F)c2)c2cnc(NCCCn3ccnc3)nc21	736
CCOc1ccccc1C1CCN(CCCCNC(=O)c2ccc(NC(=O)c3ccc(Cl)cc3)cc2)CC1	846
O=C(Nc1ccc(Oc2ccccc2)cc1)N[C@H]1CCN(Cc2ccc(OCCCN3CCCCC3)cc2)C1	179
COc1ccc(NC(=O)c2c(NC(=O)c3cccs3)sc3c2CCCC3)cc1	448
CN(C)c1ccc(CN2CCC(NC(=O)c3ccc(-c4cccc(F)c4)s3)CC2)cc1	1490
Cc1noc(C)c1-c1ccc2c(Nc3ccccc3C(C)(C)C)c(C(=O)NCc3ccccc3)cnc2c1	762
CC(=O)Nc1ccc(S(=O)(=O)Nc2c(C)cc(Cc3cnc(N)nc3N)cc2C)cc1	1000
Cc1cccc(CN2CCCN(Cc3ccc(C(=O)Nc4ccc(C(C)(C)C)cc4)cc3)CC2)c1	727
Nc1c(Cl)cc(C(O)CNCCCCCOCCc2ccc3ccccc3n2)cc1Cl (stereo not drawn)	1020
CC(C)c1ccc(OCC(O)CN(CCN2CCOCC2)C(=O)Nc2ccc(Br)cc2)cc1 (stereo not drawn)	717
Cc1cc(C(=O)NC2CCN(CC3(c4ccccc4)CCCCC3)CC2)on1	258
COc1ccccc1N1CCN(C(C(=O)NCc2cccc(F)c2)c2ccc(C)cc2)CC1 (stereo not drawn)	892
O=C(NCCc1cccc(F)c1)c1ccc(N2CCN(c3ccncc3)CC2)cn1	1020
CCCC(CNCc1cccc(C)c1)CNc1cc(=O)c2ccccc2[nH]1 (stereo not drawn)	631
O=C(Nc1ccc(Cn2ncc(N3CCCNCC3)c(Cl)c2=O)cc1)Nc1ccc(-c2ccccc2)cc1	797
CNc1ccc(CNCc2ccc(-c3ccc(-c4nc5cc(C(F)(F)F)ccc5[nH]4)cc3)cc2)cc1	167
CC1(C)N=C(N)N=C(N)N1OCc1cc(Cl)c(CON2C(N)=NC(N)=NC2(C)C)cc1Cl	37.8
